Measurements as given in patent US20080318911A1, “20-Cyclopropyl, 26,27-Alkyl/Haloalkyl Vitamin D3 Compounds and Methods of Use Thereof” (BIOXELL S.P.A., priority 2004, published 2008).
Converted amounts (≈) assume the structure as drawn.

Key:
[1] = Determination of Maximum Tolerated Dose (MTD) in mice; settings: mouse, in vivo, po; female C57BL/6 mice, p.o. daily for four days; highest dose without hypercalcemia (serum calcium >10.7 mg/dl)
[2] = tested on: IFN-γ production by allogeneic PBMC; assay: IFN-γ production in the mixed leukocyte response (MLR); assay type: cell-based; settings: 120 h; MLR of allogeneic PBMC, 5 days, ELISA; read-out: INF-γ IC50
Protocol: Immature dendritic cells (DC) were prepared as described in Romani, N. et al. (Romani, N. et al. (1996) J. Immunol. Meth. 196:137). IFN-γ production by allogeneic T cell activation in the mixed leukocyte response (MLR) was determined as described in Penna, G., et al., J Immunol., 164: 2405-2411 (2000).
Briefly, peripheral blood mononuclear cells (PBMC) were separated from buffy coats by Ficoll gradient and the same number (3×10^5) of allogeneic PBMC from 2 different donors were co-cultured in 96-well flat-bottom plates. The vitamin D3 compounds were added to each of the cultures.

[3] = tested on: RT112; assay: Proliferation assay using bladder cancer cell lines: RT112; assay type: cell-based, human; settings: 72 h culture, CyQuant proliferation assay
Protocol: (§1) Bladder cancer cell lines (T24, RT112, HT1376 and RT4 are human bladder cancer cell lines; NHEK are normal human keratinocytes) were obtained from the European Collection of Cell Cultures (Salisbury, UK). Cells were plated at 3×10^3 per well, in flat bottomed 96-well plates in 100 μl of DMEM medium containing: 5% Fetal Clone 1,50 μg/l gentamicin, 1 mM sodium pyruvate and 1% non-essential amino acids. After culturing for 24 h at 37° C. in 5% CO2, to allow cells to adhere to the plates, VDR ligands (compounds (1)-(14)) were added at concentrations ranging from 100 μM to 0.3 μM in 100 μl of above-mentioned complete medium. After a further 72 h of culture, cell proliferation was measured using a fluorescence-based proliferation assay kit. (CyQuant Cell Proliferation Assay Kit, Molecular Probes, Eugene, Oreg., USA). The IC50 was calculated from the regression curve of the titration data.

[4] = tested on: RT4; assay: Proliferation assay using bladder cancer cell lines: RT4; assay type: cell-based, human; settings: 72 h culture, CyQuant proliferation assay
Protocol: as §1

[5] = tested on: NHEK; assay: Proliferation assay: NHEK normal human keratinocytes; assay type: cell-based; settings: 72 h culture, CyQuant proliferation assay
Protocol: as §1

[6] = tested on: human stromal bladder cells; assay: Basal growth of human stromal bladder cells; assay type: cell-based; settings: FIG. 2
Excerpt: The Inventors confirmed the presence of vitamin D receptors (VDRs), as previously reported in the literature, on these cells (see below in FIG. 1).
The maximum tolerated dose (MTD) in rats is also listed for each compound (Table 5).

[7] = tested on: Renin mRNA in As4.1 cells; assay: Renin mRNA inhibition in murine juxtaglomerular cell line As4.1; assay type: cell-based; settings: Mus musculus, 24 h, real time PCR normalized versus β-actin, read-out: Renin mRNA inh.As4.1/wt
Protocol: As4.1 cells (80% subconfluent) were treated in complete medium with compounds of the invention at 10^−8, 10^−9 and 10^−10 M for 24 h. Total RNA was extracted using RNeasy Mini kit (Qiagen); treated with DNase I (Qiagen) and Reverse Transcription Reagent (Applied Biosystems) with Random Examers were used for reverse transcription according to the manufacturers' instructions. Real Time PCR analysis was performed in multiplex using commercially available β-actin VIC-conjugated probe (cat. n. 4352341E, Applied Biosystems) and custom designed mRENIN FAM-conjugated probe (Assay by Design, Applied Biosystems; Forward: […]; Reverse: […]; Probe: FAM-[…]-MGB). Reactions were performed in a 25 μL volume containing 12,5 μl 2× Master Mix (Applied Biosystems), 10 ng/reaction/well cDNA, and 2,5 μM each gene-specific primer. An ABI PRISM 7700 analyzer (Applied Biosystems) was used at 50° C. for 2 minutes and 95° C. for 10 minutes, followed by 40 cycles at 95° C. for 15 seconds and 60° C. for 1 minute. Cycle threshold (Ct) values were exported onto Excel worksheets for analysis. Test cDNA results were normalized versus mouse β-actin housekeeping gene. Fold differences in gene expression between the subtracted versus the unsubtracted populations were expressed using the method of 2^−ΔΔCt. (Table 6)

[8] = Theoretical maximum absorbable dose (MAD), human intestine; settings: for MAD (ug) human (PAMPA): calculated using PAMPA permeability
Protocol: (§2) To evaluate the intestinal absorption potential of selected compounds, the maximum absorbable dose (MAD) in mouse, rat and human intestines was also calculated using a modification of the original equation (Johnson 1996, Hilgers 2003): MAD (mg)=S·Pe·(A/ILV)·SIV·SITT (Eq. 1), where S is the solubility measured at pH 7.4 (mg/ml), Pe is the permeability measured in artificial membranes (PAMPA) or in the apical to basolateral direction of Caco-2 cells (cm/sec), A is the intestinal surface area (cm^2), ILV is the intestinal lumen volume (cm^3), SIV is the small intestinal volume (ml) and SITT is the small intestinal transit time (sec).

[9] = Theoretical maximum absorbable dose (MAD), mouse intestine; settings: for MAD (ug) mouse (PAMPA): calculated using PAMPA permeability
Protocol: as §2

[10] = Theoretical maximum absorbable dose (MAD), rat intestine; settings: for MAD (ug) rat (PAMPA): calculated using PAMPA permeability
Protocol: as §2

[11] = Permeability by passive diffusion (PAMPA); assay type: in vitro ADME; settings: for PAMPA % Memb: % retention in the membrane; for Papp at 4 h, 10 μM: PAMPA
Protocol: Permeability by Passive Diffusion (PAMPA). Experiments were performed in 96-well acceptor and donor plates using 15% soy lecithin in n-dodecane artificial membranes. The acceptor plate (96 well hydrophobic filter plate (MAIP N45, Millipore)) was prepared by adding 4 μL of artificial membrane material on the top of the filter and the plate was filled with 200 μL of HEPES buffered HBSS (pH 7.4). The donor plate (an indented 96-well plate from p-ION, MA) was filled with 200 μL of HEPES buffered HBSS (pH 7.4) containing 10 μM of the test compounds. The acceptor plate was placed onto the donor plate to form a “sandwich” and was incubated at 37° C. for 4 hours. After the incubation period, acceptor, donor and initial donor solution (reference) were analysed via LC-MS/MS. Data were reported as bilateral Peff in cm×10^−6/sec and % retention in the membrane.

[12] = Solubility in aqueous buffer; assay type: physicochemical; settings: kinetic from dmso stock; for solubility at 2 h: pH 7, 2 h; for solubility at 24 h: pH 7, 24 h; for solubility: pH 7.4, aqueous buffer
Protocol: […] A 96-well plate format assay was used. […] Solutions were filtered through a 0.22 μm and concentrations of the concentration of the compound in the filtrate was determined using LC-MS/MS in comparison with 1 and 10 μM standards. The measurements were expressed as mM.

[13] = target: T1, human cDNA expressed CYP3A4 (Homo sapiens, UniProt P08684); assay: Metabolic stability (hCYP3A4); assay type: in vitro ADME; settings: 2 μM, 60 min at 37° C.
T1 construct: purchased Gentest
T1 sequence (P08684 whole entry): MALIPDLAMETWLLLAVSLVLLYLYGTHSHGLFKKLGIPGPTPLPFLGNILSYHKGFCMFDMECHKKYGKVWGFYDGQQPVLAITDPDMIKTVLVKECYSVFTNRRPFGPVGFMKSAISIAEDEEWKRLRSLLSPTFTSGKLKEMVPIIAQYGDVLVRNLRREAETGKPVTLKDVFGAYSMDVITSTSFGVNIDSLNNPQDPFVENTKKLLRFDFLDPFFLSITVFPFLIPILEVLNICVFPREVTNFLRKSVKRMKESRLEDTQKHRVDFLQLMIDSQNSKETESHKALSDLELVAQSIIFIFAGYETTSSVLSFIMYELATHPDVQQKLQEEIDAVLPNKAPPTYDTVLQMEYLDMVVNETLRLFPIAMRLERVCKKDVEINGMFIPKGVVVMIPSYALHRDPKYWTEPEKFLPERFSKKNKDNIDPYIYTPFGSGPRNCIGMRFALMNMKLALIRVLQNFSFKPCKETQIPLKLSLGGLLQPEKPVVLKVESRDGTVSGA
Protocol: Metabolic Stability (hCYP34A4). The relative stability of the substrate was determined by measuring the amount of substrate remaining following incubation with human cDNA expressed CYP3A4 microsomal preparations (Gentest, 6 pmol) against a control microsomal incubation containing no active cytochrome P450. The assay was performed in a 96-well plate format. Each compound was incubated at a concentration of 2 μM for 60 min at 37° C. LC-MS/MS was used for determining the compound remaining after incubation. The results were expressed as % remaining.

[14] = Apparent permeability on Caco-2 cells; assay type: in vitro ADME, Human; settings: human, Caco-2, Table 8; for Papp A→B at 2 h, 10 μM: apical to basolateral, read-out: Caco2 Papp_AB; for Papp B→A at 2 h, 10 μM: basolateral to apical, read-out: Caco2 Papp_BA
Protocol: (§3) Apparent Permeability on Caco-2 cells. Human colon adenocarcinoma (Caco-2) cells were obtained from the American Type Culture Collection (Rockville, Md.). Permeability studies were performed using a 24-well format in both transport directions, apical to basolateral (A→B) and basolateral to apical (B→A), on Caco-2 monolayers. Fresh donor solution containing 10 μM test compound was added to either the apical or the basolateral side, while drug-free medium was placed on the opposite side. The 24-transwell plates were placed on a plate shaker at 37° C. After 2 h, the buffer from the receiving and donor chambers were collected and aliquots were analysed via LC-MS/MS. The data reported were the permeability cm·10^−6/sec and the efflux ratio.

[15] = tested on: Caco-2 cells; assay: Apparent permeability on Caco-2 cells; assay type: in vitro ADME, Human; settings: for Papp_A > B / Papp_B >: 10 μM, 2 h; for Mass Bal A > B: unit assumed
Protocol: as §3

[16] = tested on: HT1376; assay: Proliferation assay using bladder cancer cell lines: HT1376; assay type: cell-based; settings: Homo sapiens, HT-1376; 72 h culture, CyQuant proliferation assay
Protocol: as §1

[17] = calculated using Caco2-AB permeability

| SMILES | MTD at 4 days [1] [µg/kg] | IC50 [2] [nM] | IC50 ([3]; Homo sapiens, RT-112) [µM] | IC50 ([4]; Homo sapiens, RT-4) [µM] | IC50 [5] [µM] | inhibiting the basal growth of bladder cells [6] | IC50 [7] [µM] | MAD (ug) human (PAMPA) [8] [µg] | MAD (ug) mouse (PAMPA) [9] [µg] | MAD (ug) rat (PAMPA) [10] [µg] | PAMPA % Memb [11] [%] | Papp at 4 h, 10 μM ([11]; pH 7.4, Table 8) [×10⁻⁶ cm/s] | solubility at 2 h [12] [µM] | solubility at 24 h [12] [µM] | solubility [12] [µg/mL] | CYP3A4 stability [13] [% remaining] | Papp_A > B ([15]; apical to basolateral) [cm·10^−6/sec] | Mass Bal A > B ([15]; apical to basolateral) [%] | Mass Bal B > A ([15]; basolateral to apical) [%] | Papp_B > ([15]; basolateral to apical) [cm·10^−6/sec] | other results |
| --- | --- | --- | --- | --- | --- | --- | --- | --- | --- | --- | --- | --- | --- | --- | --- | --- | --- | --- | --- | --- | --- |
| C=C1/C(=C\C=C2/CCC[C@]3(C)C(C4(C/C=C\C(O)(C(F)(F)F)C(F)(F)F)CC4)=CCC23)CC(O)C[C@@H]1O (stereo partly drawn) [Compound 8, 1α,25-Dihydroxy-16-ene-20-cyclopropyl-23,24-Z-ene-26,27-hexafluoro-cholecalciferol] | 1 | 0.033 | 15.5 | 3.3 | 3.6 | effective | 0.00161 | 716.81 | 2.11 | 10.28 | 57.6 | 50 | < 1 | 1.6 (≈ 0.852 µg/mL) | 0.533 (≈ 1 µM) | 52.7 |  |  |  |  |  |
| C[C@]12CCC/C(=C\C=C3\CC(O)C[C@H](O)C3)C1CC=C2C1(CC#CC(O)(C(F)(F)F)C(F)(F)F)CC1 (stereo partly drawn) [Compound 3, 1α,25-Dihydroxy-16-ene-20-cyclopropyl-23,24-yne-26,27-hexafluoro-19-nor-cholecalciferol] | 0.3 | 0.014 | 22.7 | 5.2 | 1 |  | 0.00073 |  |  |  |  |  | 1.3 (≈ 0.674 µg/mL) | 7.1 (≈ 3.68 µg/mL) | 0.674 (≈ 1.3 µM) | 45.5 | 3.0 | 8.8 | 50.5 | 6.0 | MAD (ug) human (Caco2-AB) [8, 17]: 54.43 (Caco2-AB) ug; MAD (ug) mouse (Caco2-AB) [9, 17]: 0.16 (Caco2-AB) ug; MAD (ug) rat (Caco2-AB) [10, 17]: 0.78 (Caco2-AB) ug; Papp A→B at 2 h, 10 μM [14]: 3 ×10⁻⁶ cm/s; Papp B→A at 2 h, 10 μM [14]: 6 ×10⁻⁶ cm/s |
| C=C1/C(=C\C=C2/CCC[C@]3(C)C([C@H](C)CCCC(C)(C)O)CC[C@@H]23)C[C@@H](O)C[C@@H]1O (stereo partly drawn) [1,25(OH)2D3, 1,25-dihydroxycholecalciferol, reference compound] | 0.3 | 0.0496 |  |  | 4.5 | effective |  |  |  |  |  |  |  |  |  |  |  |  |  |  | IC50 [3]: 28.7 µM; IC50 ([3]; Homo sapiens, RT-112, 72 h): 19 µM; IC50 [16]: 50 µM; IC50 [4]: 26 µM; IC50 ([4]; Homo sapiens, RT-4, 72 h): 45 µM |
| CC(C)(O)CCCC1(C2=CCC3/C(=C/C=C4/CC(O)C[C@H](O)C4)CCC[C@]23C)CC1 (stereo partly drawn) [Compound 9, 1α,25-Dihydroxy-16-ene-20-cyclopropyl-19-nor-cholecalciferol] | 1 | 0.031 | > 30 | 9.9 | 6.1 |  | 0.00878 | 8023.11 | 23.61 | 115.08 | 97.1 | 36 | 19.9 (≈ 8.25 µg/mL) | 21.6 (≈ 8.96 µg/mL) | 8.27 (≈ 19.9 µM) | 33.3 | 4.8 | 36.7 | 89.1 | 6.5 | Papp at 4 h, 10 μM ([11]; pH 7.4, 10 μM, pH 7.4, 37° C., 4 hours, Table 9): 36 ×10⁻⁶ cm/s; Papp A→B at 2 h, 10 μM [14]: 4.82 ×10⁻⁶ cm/s; Papp B→A at 2 h, 10 μM [14]: 6.46 ×10⁻⁶ cm/s |
| C[C@]12CCC/C(=C\C=C3\CC(O)C[C@H](O)C3)C1CC=C2C1(C/C=C\C(O)(C(F)(F)F)C(F)(F)F)CC1 (stereo partly drawn) [Compound 7, 1α,25-Dihydroxy-16-ene-20-cyclopropyl-23,24-Z-ene-26,27-hexafluoro-19-nor-cholecalciferol] | 0.3 | 0.055 | 9.6 | 2.2 | 4.4 |  | 0.00258 | 2788.31 | 8.20 | 39.99 | 58.1 | 47.8 | 4.2 (≈ 2.19 µg/mL) | 4.1 (≈ 2.13 µg/mL) | 2.17 (≈ 4.16 µM) | 58.3 | 0.0 | 13.1 | 83.3 | 0.0 | Caco2 Papp_AB ([15]; apical to basolateral, Table 8): 0.00 10-6 cm/sec; Caco2 Papp_BA ([15]; basolateral to apical, Table 8): 0.00 10-6 cm/sec |
